Data on one molecule can be found in patent publication US8138158B2, “Compositions and methods for therapy for diseases characterized by defective chloride transport” (Children's Hospital & Research Center at Oakland, priority 1997, dated 2012).

The experiment relates to wildtype CFTR-corrected CF15 monolayers. Description: Short-circuit current across wildtype CFTR-corrected CF15 monolayers. It counts as cell-based, human. On the procedure:
Human airway cell culture. The human submucosal serous gland-like cell line Calu-3, the CF nasal epithelial cell line homozygous for ΔF508 CFTR (CF15) and human tracheal primary cultures (hTE) were cultured as described (Jefferson, D. M., Valentich, J. D., Marini, F. C., Grubman, S. A., Iannuzzi, M. C., Dorkin, H. L., Li, M., Klinger, K. W. & Welsh, M. J. (1990) Am. J. Physiol. 259, L496-L505. Sachs, L. A., Finkbeiner, W. E. & Widdicombe, J. H. (2003) In Vitro Cell Dev. Biol. Anim. 39, 56-62.). Wildtype CFTR-corrected CF15 cells were generated via adenovirus-mediated gene transfer. Growth media were nominally free of ascorbic acid (<10 μm, University Pathology Inc., Salt Lake City, Utah). For transepithelial measurements cells were grown on permeable filter inserts and used after 3 to 10 days.
Short-circuit current measurement. Calu-3 or CF15 cells were grown as monolayers, mounted in Ussing chambers and short-circuit current (ISC) was recorded as described (Illek, B. & Fischer, H. (1998) Am. J. Physiol. 275, L902-L910). At 20-50 second intervals, transepithelial voltage was clamped from zero to 2 mV and the transepithelial resistance (Rte) was calculated. A serosa-to-mucosa-directed Cl gradient was applied. Serosal Ussing chamber solution contained (in mM): 120 NaCl, 20 NaHCO3, 5 KHCO3, 1.2 NaH2PO4, 5.6 glucose, 2.5 CaCl2, 1.2 MgCl2. In mucosal Ussing chamber solutions, all Cl salts were exchanged for gluconate salts.
The CF15 cell line was used to determine whether ascorbate-stimulated Cl currents were solely mediated by the CFTR Cl conductance. The CF15 cell line is characterized by the absence of functional CFTR in the apical plasma membrane but the presence of other non-CFTR Cl conductances (Jefferson, D. M., Valentich, J. D., Marini, F. C., Grubman, S. A., Iannuzzi, M. C., Dorkin, H. L., Li, M., Klinger, K. W. & Welsh, M. J. (1990) Am. J. Physiol. 259, L496-L505). A concentration of L-ascorbic acid that lay within the upper plateau of the dose response curve (500 μm) was applied and ascorbate-stimulated Cl currents in CF15 vs. wildtype CFTR-corrected CF15 monolayers was compared (FIG. 23A). […] The defective response to L-ascorbic acid was reversed in wildtype CFTR-corrected CF15 epithelia such that ISC responded promptly to L-ascorbic acid (ΔISC=7.5±0.5 μA/cm^2, n=6). The ascorbate-stimulated current was further activated by the cAMP agonist forskolin and total stimulated ISC averaged 12.1±1.1 μA/cm^2 (FIG. 4B). The ascorbate-stimulated Cl current reached 60±15% of the forskolin-stimulated current in CFTR-corrected CF15 monolayers, which was close to the corresponding findings in Calu-3 monolayers (68%, see FIG. 21A). The absence of ascorbate-stimulated Cl currents in CF15 monolayers supports the notion that non-CFTR Cl conductances were not activated by L-ascorbic acid.
In this example, chloride currents stimulated by L-ascorbate or D-ascorbate were measured in CF15 versus. wildtype CFTR-corrected CF15 monolayers. A concentration of L-ascorbate (1 mM) or D-isoascorbate (300 μm) that lay within the upper plateau of the dose-response curve was applied to cells and the resulting chloride currents stimulated in CF15 versus wildtype CFTR-corrected CF15 monolayers were measured (FIG. 25 A-H). All experiments were performed in the presence of the sodium channel blocker amiloride. […]

`O=C1O[C@H](C(O)CO)C(O)=C1O` (stereo partly drawn) [L-ascorbic acid, L-xyloascorbic acid]: the “ascorbate-stimulated Cl current, % of the forskolin-stimulated current” value came to 60±15%. In addition, under “L-ascorbate 1 mM, amiloride, n=6”, the ΔIsc is listed as 7.5±0.5 μA/cm2. Where the note is “L-ascorbic acid 500 μm, n=6”, this molecule displayed a ΔISC of 7.5±0.5 μA/cm^2.
